Experimental data reported in patent US12077503B2, “Substituted cyclic amides and their use as herbicides” (FMC CORPORATION, priority 2015, dated 2024).

Experiments:
Type in all cases: in vivo
[1] = system: sedge, umbrella (small-flower umbrella sedge, Cyperus difformis); test: Test C flooded paddy test; details: Flood; for Plant response rating (scale of 0 to 100), Sedge, Umbrella: 0 is no effect, 100 is complete control
In short: (§1)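 Compound was added directly to paddy water held 3 cm above the soil, with plants at the 2-leaf stage. Injury was scored visually versus untreated controls after 13–15 d greenhouse growth, using a 0–100 scale where 100 means complete control.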

[2] = system: barnyardgrass (Echinochloa crus-galli); test: Test C flooded paddy test; details: Flood; for Plant response rating (scale of 0 to 100), Barnyardgrass: 0 is no effect, 100 is complete control
In short: as §1

[3] = system: ducksalad (Heteranthera limosa); test: Test C flooded paddy test; details: Flood; for Plant response rating (scale of 0 to 100), Ducksalad: 0 is no effect, 100 is complete control
In short: as §1

[4] = system: rice (Oryza sativa); test: Test C flooded paddy test; details: Flood; for Plant response rating (scale of 0 to 100), Rice: 0 is no effect, 100 is complete control
In short: as §1

[5] = system: green foxtail (Setaria viridis); test: Test A preemergence; details: for Foxtail, Green plant response rating: 0 to 100 scale where 0 is no effect and 100 is complete control
In short: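 Visual injury scores from 0, no effect, to 100, complete control, were assigned versus untreated controls roughly 10 d after treatment in the greenhouse. Test chemicals, formulated with surfactant in a non-phytotoxic solvent, were applied to planted seeds as a preemergence soil spray or postemergence to one- to two-leaf plants 2 to 10 cm tall, in loam–sand soil.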

[6] = system: windgrass (Apera spica-venti); test: Test D preemergence; details: scale 0 to 100
In short: (§2)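 Preemergence soil test: silt loam, formulation = non-phytotoxic solvent + surfactant, ~21 d controlled environment, visual injury score 0 (none) to 100 (complete control) vs untreated.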

[7] = system: buckwheat, wild (wild buckwheat, Polygonum convolvulus); test: Test D preemergence; details: scale 0 to 100
In short: as §2

[8] = system: field violet (Viola arvensis); test: Test D preemergence; details: scale 0 to 100
In short: as §2

[9] = system: Kochia (Kochia scoparia); test: Test D preemergence; details: scale 0 to 100
In short: as §2

[10] = 31 g ai/ha, scale 0 to 100 (0 no effect, 100 complete control), 13 to 15 d
[11] = 125 g ai/ha, preemergence, approx. 10 d

Row | SMILES | Plant response rating (scale of 0 to 100), Sedge, Umbrella ([1]; 62 g ai/ha) | Plant response rating (scale of 0 to 100), Sedge, Umbrella ([1]; 125 g ai/ha) | Plant response rating (scale of 0 to 100), Sedge, Umbrella ([1]; 250 g ai/ha) | Plant response rating (scale of 0 to 100), Barnyardgrass ([2]; 62 g ai/ha) | Plant response rating (scale of 0 to 100), Barnyardgrass ([2]; 125 g ai/ha) | Plant response rating (scale of 0 to 100), Barnyardgrass ([2]; 250 g ai/ha) | Plant response rating (scale of 0 to 100), Ducksalad ([3]; 62 g ai/ha) | Plant response rating (scale of 0 to 100), Ducksalad ([3]; 125 g ai/ha) | Plant response rating (scale of 0 to 100), Ducksalad ([3]; 250 g ai/ha) | Plant response rating (scale of 0 to 100), Rice ([4]; 62 g ai/ha) | Plant response rating (scale of 0 to 100), Rice ([4]; 125 g ai/ha) | Plant response rating (scale of 0 to 100), Rice ([4]; 250 g ai/ha) | Foxtail, Green plant response rating ([5]; 31 g ai/ha, Preemergence) | Plant response rating (scale of 0 to 100), Sedge, Umbrella ([1]; 31 g ai/ha) | Plant response rating (scale of 0 to 100), Barnyardgrass ([2]; 31 g ai/ha) | Plant response rating (scale of 0 to 100), Ducksalad ([3]; 31 g ai/ha) | Plant response rating (scale of 0 to 100), Rice ([4]; 31 g ai/ha) | Plant response rating: Windgrass ([6]; 31 g ai/ha) | Plant response rating: Windgrass ([6]; 62 g ai/ha) | Plant response rating: Windgrass ([6]; 125 g ai/ha) | further results
1 | O=C1NCC(c2cccc(OC(F)(F)C(F)F)c2)C1C(=O)Nc1ccccc1F (racemic) [Compound 695] | 0 | 0 | 0 | 60 | 65 | 70 | 50 | 80 | 100 | 0 | 15 | 15 | – | – | – | – | – | – | – | – | Plant response rating, Sedge, Umbrella [1, 10]: 0; Plant response rating, Barnyardgrass [2, 10]: 20; Plant response rating, Ducksalad [3, 10]: 30; Plant response rating, Rice [4, 10]: 0
2 | CN1C[C@H](c2csc3c2CCC(F)(F)C3)[C@@H](C(=O)Nc2ccccc2S(C)(=O)=O)C1=O (racemic) [Compound 1367] | – | – | – | – | – | – | – | – | – | – | – | – | 0 | – | – | – | – | – | – | – | Plant response rating, Foxtail, Green ([5]; Preemergence, 125 g ai/ha, 0 to 100 scale (0 no effect, 100 complete control)): 60
3 | CN1CC(c2ccc(F)c(C(F)(F)F)c2)C(C(=O)Nc2cccc(F)c2F)C1=O (stereo not shown) [Compound 613] | 0 | 0 | 0 | 30 | 50 | 60 | 60 | 75 | 100 | 0 | 10 | 20 | – | 0 | 0 | 0 | 0 | – | – | – | –
4 | CN1CC(c2cccc(OC(F)F)c2)C(C(=O)Nc2ccccc2F)C1=O (stereo not shown) [Compound 618] | 0 | 0 | 0 | 50 | 75 | 80 | 60 | 95 | 100 | 0 | 15 | 15 | – | 0 | 35 | 60 | 0 | – | – | – | –
5 | CN1CC(c2ccc(C(F)(F)F)cc2)C(C(=O)Nc2ccccc2S(C)(=O)=O)C1=O (stereo not shown) [Compound 624] | – | – | – | – | – | – | – | – | – | – | – | – | – | – | – | – | – | 15 | 25 | 85 | Plant response rating: Windgrass ([6]; 250 g ai/ha): 95; Plant response rating: Buckwheat, Wild ([7]; 31 g ai/ha): 0; Plant response rating: Buckwheat, Wild ([7]; 62 g ai/ha): 0; Plant response rating: Buckwheat, Wild ([7]; 125 g ai/ha): 15; Plant response rating: Buckwheat, Wild ([7]; 250 g ai/ha): 50; Plant response rating: Field Violet ([8]; 31 g ai/ha): 10; Plant response rating: Field Violet ([8]; 62 g ai/ha): 10; Plant response rating: Field Violet ([8]; 125 g ai/ha): 10; Plant response rating: Field Violet ([8]; 250 g ai/ha): 10; Plant response rating: Kochia ([9]; 31 g ai/ha): 0; Plant response rating: Kochia ([9]; 62 g ai/ha): 5; Plant response rating: Kochia ([9]; 125 g ai/ha): 15; Plant response rating: Kochia ([9]; 250 g ai/ha): 85
6 | CN1CC(c2cccc(C(F)(F)F)c2)C(C(=O)Nc2cccc(F)c2F)C1=O (stereo not shown) [Compound 636] | – | – | – | – | – | – | – | – | – | – | – | – | – | – | – | – | – | 85 | 95 | 95 | Plant response rating: Windgrass ([6]; 250 g ai/ha): 98; Plant response rating: Buckwheat, Wild ([7]; 31 g ai/ha): 5; Plant response rating: Buckwheat, Wild ([7]; 62 g ai/ha): 75; Plant response rating: Buckwheat, Wild ([7]; 125 g ai/ha): 90; Plant response rating: Buckwheat, Wild ([7]; 250 g ai/ha): 80; Plant response rating: Field Violet ([8]; 31 g ai/ha): 0; Plant response rating: Field Violet ([8]; 62 g ai/ha): 0; Plant response rating: Field Violet ([8]; 125 g ai/ha): 35; Plant response rating: Field Violet ([8]; 250 g ai/ha): 85; Plant response rating: Kochia ([9]; 31 g ai/ha): 5; Plant response rating: Kochia ([9]; 62 g ai/ha): 25; Plant response rating: Kochia ([9]; 125 g ai/ha): 75; Plant response rating: Kochia ([9]; 250 g ai/ha): 75
7 | CN1CC(c2cccc(C(F)(F)F)c2)C(C(=O)Nc2ccccc2S(C)(=O)=O)C1=O (stereo not shown) [Compound 637] | 0 | 0 | 0 | 40 | 60 | 75 | 45 | 70 | 90 | 15 | 15 | 45 | – | 0 | 35 | 30 | 15 | 10 | 25 | 85 | Plant response rating: Windgrass ([6]; 250 g ai/ha): 95; Plant response rating: Buckwheat, Wild ([7]; 31 g ai/ha): 0; Plant response rating: Buckwheat, Wild ([7]; 62 g ai/ha): 10; Plant response rating: Buckwheat, Wild ([7]; 125 g ai/ha): 15; Plant response rating: Buckwheat, Wild ([7]; 250 g ai/ha): 80; Plant response rating: Field Violet ([8]; 31 g ai/ha): 0; Plant response rating: Field Violet ([8]; 62 g ai/ha): 0; Plant response rating: Field Violet ([8]; 125 g ai/ha): 0; Plant response rating: Field Violet ([8]; 250 g ai/ha): 0; Plant response rating: Kochia ([9]; 31 g ai/ha): 5; Plant response rating: Kochia ([9]; 62 g ai/ha): 0; Plant response rating: Kochia ([9]; 125 g ai/ha): 35; Plant response rating: Kochia ([9]; 250 g ai/ha): 85
8 | COc1cccc([C@H]2CN(C)C(=O)[C@@H]2C(=O)Nc2cccc(F)c2F)c1 [Compound 1062] | – | – | – | – | – | – | – | – | – | – | – | – | 100 | – | – | – | – | – | – | – | Foxtail, Green plant response rating [5, 11]: 100
9 | COc1cccc([C@H]2CN(C)C(=O)[C@@H]2C(=O)Nc2ccc(F)c(F)c2F)c1 [Compound 1063] | – | – | – | – | – | – | – | – | – | – | – | – | 100 | – | – | – | – | – | – | – | Foxtail, Green plant response rating [5, 11]: 100
